Experimental data taken from patent US9403866B2, “Compositions and methods for increasing telomerase activity” (Telomerase Activation Sciences, Inc., priority 2009, dated 2016).
Where two headings read alike, the source gives them in different places.

Experiments:
[1] = tested on: wild-type mouse lineage-depleted bone marrow cells; assay: Colony formation assay of wild-type mouse lineage-depleted bone marrow cells; type: cell-based; details: 12 days
Protocol: Mouse bone marrow-derived lineage-depleted cells (enriched for hematopoietic stem and progenitor cells but not a pure population) were obtained. Wild-type mouse lineage-depleted bone marrow cells from two separate mice were plated into a standard colony formation assay in the presence of compound 4 (100 nM and 500 nM), vehicle (0.1% DMSO), or nothing. After 12 days, hematopoietic colonies were enumerated (BFU-E, CFU-GM, and CFU-GEMM).

[2] = set-up: species or system male Beagle dogs; details: male, Beagle, dog, in vivo, po, 10 mg/kg
Protocol: The plasma level of a compound following a single intravenous and oral administration in male Beagle dogs was determined. Plasma samples were collected and used to determine the plasma concentration of the compound and metabolites. In addition tissue samples, including whisker samples and PBMC cells were collected for telomerase activity analysis.
(§1) Male Beagle dogs were divided into treatment groups according to Table 5. The dogs were provided ad libitum SLAC-MO1 #W080701 (Shanghai Laboratories Animal Center, Shanghai, China) throughout the in-life portion of the study with the exception of the overnight fasting period prior to oral dosing. Water was available ad libitum.
The compounds were dissolved in 2% EtOH/98% water […] to yield a final concentration of 2.5 mg/ml and 1 mg/ml for both intravenous and oral administration, respectively. The concentration of each compound was confirmed by HPLC analysis.
Doses were administered intravenously via the left femoral vein and then by oral dosing one week later. Body weights were taken on the day of dose administration. Dose volume was determined based on individual body weight taken on day of dosing.
(§2) Blood samples (approximately 250 μL) were collected via right femoral vein into tubes containing K2-EDTA anticoagulant and 1 mg/ml NaF at appropriate time points. Blood was stored on ice and then plasma separated via centrifugation (8000 rpm×6 minutes). The plasma was stored at […] until LC-MS/MS analysis.

SAECs [3] = assay: Long-term replicative capacity of SAECs in continuous culture; type: cell-based, human; details: 0.1 μM, 60 days continuous culture
Protocol: SAECs were treated continuously with 0.1 μM of compound 4 in a final concentration of 0.004% ethanol for 60 days in continuous culture. Compound 4 increased the long-term replicative capacity of SAECs by about 2 population doublings (4× increase in calculated cell number).

lung fibroblasts [4] = assay: Long-term culture of lung fibroblasts; type: cell-based, human
SAECs [5] = assay: Alamar Blue Proliferation Assay in SAECs; type: cell-based, human; details: 3 days, 1% DMSO, different concentrations
Protocol: (§3) Human SAECs or human fibroblasts were grown in the presence of different concentrations of compound 4 in a final concentration of 1% DMSO in the medium. After 3 days the cells were harvested and proliferation was measured using the Alamar Blue Proliferation Assay.

huCD34+ cells = assay: Colony formation assay of huCD34+ cells; type: cell-based, human; details: 100 nM, 14 days
Protocol: Human hematopoietic progenitor CD34+ cells (healthy donor) were plated into a standard colony formation assay in the presence of compound 4 (100 nM), vehicle (0.1% DMSO), or nothing. After 14 days, hematopoietic colonies were enumerated (CFU-E, […], CFU-GM, and CFU-GEMM). The plates containing compound 4 had 17% more colony forming units than vehicle alone. (Total colony counts were: untreated, 106.5; vehicle-treated, 103.5; compound 4-treated, 121.5)

[6] = Plasma levels and bioavailability in mice; type: in vivo, male C57BL/6 mice; details: male, C57BL/6, mouse, 10 mg/kg, 2% EtOH/98% water, read-out: Bioavailability % F
Protocol: The plasma levels of a compound following a single intravenous, oral, intra-peritoneal, or sub-cutaneous administration in male C57BL/6 mice was determined. Plasma samples were collected and used to determine the plasma concentration of the compound and metabolites. In addition tissue samples, including whisker samples, and peripheral blood mononuclear cells (PBMC) cells were collected for telomerase activity analysis.
as §1, with “[…] mice” for “Male Beagle dogs”, “groups.” for “groups according to Table 5.”, “mice” for “dogs”, “#W080208” for “#W080701”
(§4) Body weights were taken on the day of dose administration. Dose volume was determined based on individual body weight taken on day of dosing.
as §2, with “300” for “250”, “cardiac puncture or via retro-orbital puncture after anesthesia” for “right femoral vein”, “the various” for “appropriate”, “points after dosing.” for “points.”

lung fibroblasts [7] = assay: Alamar Blue Proliferation Assay in lung fibroblasts; type: cell-based, human; details: 3 days
Protocol: as §3

[8] = Plasma levels and bioavailability in rats; details: male, Sprague Dawley, rat, in vivo, po, 10 mg/kg
Protocol: The plasma levels of a compound following a single intravenous and oral administration in carotid artery-cannulated male Sprague Dawley rats was determined. Plasma samples were collected and used to determine the plasma concentration of the compound and metabolites. In addition tissue samples, including whisker samples and PBMC cells were collected for telomerase activity analysis.
as §1, with “Carotid artery-cannulated male Sprague Dawley rats” for “Male Beagle dogs”, “6.” for “5.”, “rats” for “dogs”, “# YY080208” for “#W080701”
The compounds were dissolved in 2% EtOH/98% water to yield a final concentration of 2.5 mg/ml and 1 mg/ml for both intravenous and oral administration, respectively. The concentration of each compound was confirmed by HPLC analysis.
as §4
Blood samples (approximately 250 μL) were collected via cannulae into tubes containing K2-EDTA anticoagulant and 1 mg/ml NaF at the various time points. Blood was stored on ice and then plasma separated via centrifugation (8000 rpm×6 minutes). The plasma was stored at […] until LC-MS/MS analysis.
Percentage of bioavailability was calculated.

For `CC(C)C(N)C(=O)OC1CCC23CC24CCC2(C)C(C5(C)CCC(C(C)(C)O)O5)C(O)CC2(C)C4CC(O)C3C1(C)C` (stereo not drawn) [Compound 4, 2-(L)-Amino-3-methyl-butyric acid 6α,16β-dihydroxy-17-[5-(1-hydroxy-1-methyl-ethyl)-2-methyl-tetrahydro-furan-2-yl]-4,4,13,14-tetramethyl-tetradecahydro-cyclopropa[9,10]cyclopenta[a]phenanthren-3β-yl ester], the BFU-E colonies ([1]; Mouse 1, 100 nM) was 50, the CFU-GEMM colonies ([1]; Mouse 1, 100 nM) was 0 and the CFU-GM colonies ([1]; Mouse 1, 100 nM) was 111. For the same molecule, the Total colony counts ([1]; Mouse 1, 100 nM) was 161, the BFU-E colonies ([1]; Mouse 1, 500 nM) was 38 and the CFU-GEMM colonies ([1]; Mouse 1, 500 nM) was 1. It also gave a CFU-GM colonies ([1]; Mouse 1, 500 nM) of 124, a Total colony counts ([1]; Mouse 1, 500 nM) of 162 and a BFU-E colonies ([1]; Mouse 2, 100 nM) of 31. For the same molecule, the CFU-GEMM colonies ([1]; Mouse 2, 100 nM) was 1, the CFU-GM colonies ([1]; Mouse 2, 100 nM) was 90 and the Total colony counts ([1]; Mouse 2, 100 nM) was 121. It also gave a BFU-E colonies ([1]; Mouse 2, 500 nM) of 29, a CFU-GEMM colonies ([1]; Mouse 2, 500 nM) of 2 and a CFU-GM colonies ([1]; Mouse 2, 500 nM) of 98. For the same molecule, the Total colony counts ([1]; Mouse 2, 500 nM) was 129, the “Bioavailability % F” value [2] was 47% and the “increase in calculated cell number” value (SAECs [3]) was 4 ×. The “increase of long-term replicative capacity” value (SAECs [3]; 0.004% ethanol) was “about 2 population doublings”, the “effect in long-term culture” value (lung fibroblasts [4]) was “No effect” and the increased proliferation (SAECs [5]) was “about 50%”. The BFU-E colonies (huCD34+ cells) was 25.5, the CFU-E colonies (huCD34+ cells) was 11 and the CFU-GEMM colonies (huCD34+ cells) was 5. The CFU-GM colonies (huCD34+ cells) was 80, the Total colony counts (huCD34+ cells) was 121.5 and the “more colony forming units than vehicle alone” value (huCD34+ cells) was 17%. The bioavailability ([6]; PO) was 48%, the bioavailability ([6]; SC) was 66% and the “effect on short-term proliferation” value (lung fibroblasts [7]) was “No effect”. The “Bioavailability % F” value [8] was 36%.
